The test system of experiment [1] is guinea pigs. Kind of experiment: Effect on the flow rate of urine in guinea pigs, single or combined use, Experimental Example 4. As to conditions: guinea pig; for Improvement (%): 10 minutes after administration. In kind it is in vivo, Hartley male guinea pigs. The source says: Effect on the flow rate of urine by single or combined use of Compounds of Reference Examples, distigmine, prazosin, and tamsulosin was examined using Hartley male guinea pigs. Four to six Hartley male guinea pigs weighing about 350 g (SLC) were employed in each treated group. Guinea pigs were anesthetized with urethane, and held, and the bladder was exposed. Two polyethylene tubes (PE-100) were inserted into the bladder. One of the tubes was used in infusion of physiological saline, and the other used for measurement of the internal pressure of the bladder. Saline was infused continuously at a flow rate of 0.3 mL/min. The infusion was stopped at the time when intermittent urination was confirmed at least 3 times, and the whole saline in bladder was removed. Again, infusion was started, and stopped at the time when a rise of the pressure in bladder was confirmed immediately before urination. Excreted urine was weighed on an electronic force balance (HX-400, A&D). Analogue data of the internal pressure of the bladder and urine weight were input in an AD converter (MP-30, Biopac Systems) and the digital signal was analyzed by means of purpose-made software (Student lab pro 2.1.5, Biopac Systems). Sampling interval of the date was fixed at 0.1 second, and the value of urine weight was differentiated to determine the flow rate of urine. In order to remove data noise of the excretion volume and flow rate of urine, the data was adapted to a lowcut filter at 0.5 Hz.
Measurement was made 2 times before administration of the test compound, and then the test compound was administered intravenously. Again, measurement was made 10 minutes after administration of the test compound.
The average measured value before administration of the test compounds was regarded as the value before administration, and the rate of change of the values from the ante-administration to the post-administration was calculated to compare between the groups by means of the Dunnet's test.

Experiment [2] deals with T1, acetylcholinesterase of human erythrocyte origin (Homo sapiens, UniProt P22303).
T1 construct: Acetylcholinesterase of human erythrocyte origin (Sigma Chemical Co.); purchased Sigma Chemical Co; host or cells: human erythrocytes (natural source)
T1 sequence (P22303 32-617 isoform P22303-2 limits assumed): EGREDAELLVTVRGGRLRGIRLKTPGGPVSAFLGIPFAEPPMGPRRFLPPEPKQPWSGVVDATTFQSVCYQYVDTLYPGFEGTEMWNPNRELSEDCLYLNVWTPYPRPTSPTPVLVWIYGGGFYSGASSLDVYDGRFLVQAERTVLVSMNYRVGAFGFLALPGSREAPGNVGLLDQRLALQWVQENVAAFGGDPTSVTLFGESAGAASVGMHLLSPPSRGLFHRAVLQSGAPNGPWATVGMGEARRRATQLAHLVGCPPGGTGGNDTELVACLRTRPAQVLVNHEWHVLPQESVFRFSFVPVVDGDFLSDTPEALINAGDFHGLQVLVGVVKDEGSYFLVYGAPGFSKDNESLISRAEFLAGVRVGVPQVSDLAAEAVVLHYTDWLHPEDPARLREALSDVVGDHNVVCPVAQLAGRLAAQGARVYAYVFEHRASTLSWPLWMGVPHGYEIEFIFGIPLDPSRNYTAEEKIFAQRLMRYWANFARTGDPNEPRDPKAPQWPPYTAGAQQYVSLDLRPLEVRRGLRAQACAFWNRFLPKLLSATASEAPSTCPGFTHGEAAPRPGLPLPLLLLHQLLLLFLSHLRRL
Kind of experiment: Measurement of acetylcholinesterase-inhibiting action (acetylthiocholine / Ellman method), Experimental Example 1. In kind it is biochemical. Conditions: at least 3 experiments. The procedure:
Acetylcholinesterase-inhibiting action of the compounds disclosed in Reference Examples was measured using acetylcholinesterase of human erythrocyte origin according to the acetylthiocholine method (Ellman method).
Acetylcholinesterase of human erythrocyte origin (Sigma Chemical Co.) was dissolved in distilled water at a concentration of 0.2 IU/mL to give an enzyme authentic sample. To a 96-well microplate was dispensed 20 μL of drug solution, 30 μL of 80 mM Tris-HCl (pH 7.4), 50 μL of enzyme authentic sample and 50 μL of 5 mM 5,5-dithio-bis(2-nitrobenzoic acid) (Sigma Chemical Co.), and the plate was shaken for 10 seconds. Then, 50 μL of acetylthiocholine iodide (Sigma Chemical Co.) was added, and the plate was again shaken. Immediately after shaking, increase of extinction at […] was measured at intervals of 30 seconds for 10 minutes. The enzyme activity was determined according to the following equation.
The experiment was repeated at least 3 times for each compound to obtain 50% inhibitory concentration (IC50). Moreover, in the same manner as mentioned above, acetylcholinesterase-inhibiting activity of distigmine was measured.

The subject of a further experiment is urinary bladder. Kind of experiment: Potentiation effect for rhythmic contraction of urinary bladder in guinea pig, Experimental Example 2. The class given is in vivo, Hartley male guinea pigs. As to conditions: Cavia porcellus, iv, read-out: AUC200 (mg/kg, i.v.). Here is the method:
Potentiation effect of the compounds disclosed in Reference Examples for rhythmic contraction of urinary bladder was examined using Hartley male guinea pigs. Hartley male guinea pigs (SLC) weighing about 300 g were anesthetized with urethane (1.2 g/kg, i.p.), held, and incised at the midline of abdomen to expose the bladder. The urethra was ligated, and a polyethylene tube (PE-50) was inserted into the bladder. The internal pressure of the bladder was measured with a blood pressure amplifier (Nippon Koden), and the data was collected on a personal computer through an A/D converter (MP-30, Biopac Systems). A proper amount of physiological saline was injected into the bladder through a cannula to induce rhythmic contraction of the to bladder.
The area (AUC) that is formed by a curve of the internal pressure of the bladder and a base line was calculated through analytical software (Studentlab pro 2.1.5, Biopac Systems) to evaluate the effect of the test compounds. The curve of the internal pressure is made based on the bladder contraction immediately before administration of the test compound and the first contraction 5 minutes after the administration. From the dose-dependent curve of AUC, the dose at which AUC before drug administration was increased 2 times (AUC200) was calculated to determine potency of contraction-enhancing effect of the test compounds for the muscle of urinary bladder. In addition, the potency of contraction-enhancing effect of […] for the muscle of bladder was determined in the same manner as mentioned above.

In experiment [3] the test system is guinea pigs. Kind of experiment: Effect on urination efficiency in guinea pigs, Experimental Example 3. The class given is in vivo, Hartley male guinea pigs. Conditions: guinea pig; for Efficiency of Urination (%) Before adm.: before administration; for Efficiency of Urination (%) After adm. / Improvement of Efficiency (%): 10 minutes after administration. An excerpt:
Effect of the compounds of Reference Examples on urination efficiency was examined using Hartley male guinea pigs. Six to ten Hartley male guinea pigs weighing 346.5±3.5 g (SLC) were employed in each treated group. Guinea pigs were anesthetized with urethane, and held, and the bladder was exposed. Two polyethylene tubes (PE-50 and PE-100) were inserted into the bladder. One (PE-50) of the tubes was used in infusion of physiological saline, and the other (PE-100) was used for measurement of the internal pressure of the bladder. Saline was infused continuously at a flow rate of 0.3 mL/min. The infusion was stopped at the time when intermittent urination was confirmed at least 3 times, and the whole saline in bladder was removed. Again, infusion was started, and stopped at the time when a rise of the pressure in bladder was confirmed immediately before urination, and the time required for infusion and the weight of excreted urine were measured. Efficiency of urination was calculated from the following equation. Efficiency of urination (%)=100×Excreted volume (mL)/Infusion time (min)×0.3 (mL/min)
Measurement was made at least 2 times before administration of the test compound, and then the test compound was dissolved in distilled water and administered intravenously. […] Effect by administration of solvents was also confirmed.
The average measured value before administration of the test compounds was regarded as the value before administration, and applied to the paired-t test for a significant difference test with the value after the administration. (** p<0.01, * p<0.05)

[4] abbreviates: urethane-anesthetized guinea pig, dose at which AUC of bladder internal pressure before drug administration was increased 2 times.

Where two headings read alike, the source gives them in different places. Marks after values point to notes of the source that are not given here.

For the molecule `COc1cc2nc(N3CCN(C(=O)c4ccco4)CC3)nc(N)c2cc1OC` [Prazosin], in the experiment with guinea pigs [1] (prazosin 0.1 mg/kg i.v. group, before administration (Table 8)), the “Flow Rate (mL/sec) Ante-admn.” value came out at 0.18 ± 0.03 mL/s. Besides, the “Flow Rate (mL/sec) Post-admn.” value in the experiment on guinea pigs [1] (prazosin 0.1 mg/kg i.v., 10 minutes after administration (Table 8)) worked out at 0.17 ± 0.02 mL/s. For the same molecule, in the experiment with guinea pigs [1] (prazosin 0.1 mg/kg i.v., control DMSO (Table 8)), the “Improvement (%)” value is 0.97 ± 10.32%.
As a reminder, the IC50 is the concentration needed to halve the response being measured. The low end stands for inhibition by little substance, the high end for a need for much substance. On to `N#Cc1cccc(CN2CCC(CCC(=O)c3cc4c5c(c3)CCN5C(=O)CC4)CC2)c1` [Reference Example 1], for which the midpoint of inhibition in experiment [2], the IC50, lay at 13.6 nM. The ED (2-fold bladder contraction AUC) in the experiment with urinary bladder (setting [4]) is 0.005 mg/kg.
On the same counts, the results for `Cc1ccccc1CN1CCC(CCC(=O)c2cc3c4c(c2)CCN4C(=O)CC3)CC1` [compound 7] are 22.1 nM and 0.0055 mg/kg.
On the same counts, the results for `O=C(CCC1CCN(Cc2ccccc2Cl)CC1)c1cc2c3c(c1)CCN3C(=O)CC2` [compound 14] are 9.9 nM and 0.0016 mg/kg.
`O=C(CCC1CCN(Cc2ccccc2O)CC1)c1cc2c3c(c1)CCN3C(=O)CC2` [compound 13] registered an IC50 in experiment [2] of 5.2 nM. In the experiment with urinary bladder (setting [4]), the ED (2-fold bladder contraction AUC) amounted to 0.0013 mg/kg.
The molecule `O=C(CCC1CCN(Cc2ccccc2)CC1)c1cc2c3c(c1)CC(=O)N3CCC2` [compound 18] returned an IC50 in experiment [2] of 10.9 nM. In the experiment with urinary bladder, the ED (2-fold bladder contraction AUC) worked out at 0.0051 mg/kg.
With `O=C(CCC1CCN(Cc2cccc(F)c2)CC1)c1cc2c3c(c1)CCN3C(=O)CC2` [Reference Example 15, 8-[3-[1-[(3-fluorophenyl)methyl]-4-piperidinyl]-1-oxopropyl]-1,2,5,6-tetrahydro-4H-pyrrolo[3,2,1-ij]quinolin-4-one], the “Efficiency of Urination (%) Before adm.” value stood at 71.5 ± 7.9% in the experiment with guinea pigs [3] (0.003 mg/kg i.v. group), 60.0 ± 7.7% with guinea pigs [3] (0.01 mg/kg i.v. group) and 65.5 ± 9.0% with guinea pigs [3] (0.03 mg/kg i.v. group). Besides, the “Efficiency of Urination (%) After adm.” value is on record as 79.6 ± 6.4% in the experiment on guinea pigs [3] (0.003 mg/kg i.v.), 93.9 ± 3.0% in the experiment on guinea pigs [3] (0.01 mg/kg i.v.) and 88.9 ± 3.1% with guinea pigs [3] (0.03 mg/kg i.v.). Moreover, the “Improvement of Efficiency (%)” value in the experiment on guinea pigs [3] (0.003 mg/kg i.v.) is reported as 16.2%; in the experiment on guinea pigs [3] (0.01 mg/kg i.v.), 77.0** %; in the experiment with guinea pigs [3] (0.03 mg/kg i.v.), 66.2* %. The molecule also registered a half-inhibitory concentration (IC50) in experiment [2] of 4.4 nM. The “Flow Rate (mL/sec) Ante-admn.” value with guinea pigs [1] (Ref. Ex. 15 0.001 mg/kg i.v. group, before administration (Table 9)) amounted to 0.17 ± 0.03 mL/s; in the experiment with guinea pigs [1] (Ref. Ex. 15 0.01 mg/kg i.v. group, before administration (Table 8)), 0.27 ± 0.03 mL/s. The “Flow Rate (mL/sec) Post-admn.” value with guinea pigs [1] (Ref. Ex. 15 0.001 mg/kg i.v., 10 minutes after administration (Table 9)) worked out at 0.15 ± 0.02 mL/s; with guinea pigs [1] (Ref. Ex. 15 0.01 mg/kg i.v., 10 minutes after administration (Table 8)) it was 0.29 ± 0.05 mL/s. Moreover, the “Improvement (%)” value is given as −6.5 ± 12.1% in the experiment with guinea pigs [1] (Ref. Ex. 15 0.001 mg/kg i.v., control distilled water (Table 9)) and 6.81 ± 7.84% with guinea pigs [1] (Ref. Ex. 15 0.01 mg/kg i.v., control DMSO (Table 8)). In the experiment with urinary bladder (setting [4]), the ED (2-fold bladder contraction AUC) is 0.0013 mg/kg.
As for `Nc1c2c(nc3ccccc13)CCCC2` [compound 30], the “Efficiency of Urination (%) Before adm.” value was 62.2 ± 5.1% in the experiment with guinea pigs [3] (0.3 mg/kg i.v. group (Ref. Ex. 30)), 62.8 ± 7.8% in the experiment on guinea pigs [3] (1.0 mg/kg i.v. group (Ref. Ex. 30)) and 65.8 ± 8.9% with guinea pigs [3] (3.0 mg/kg i.v. group (Ref. Ex. 30)). The “Efficiency of Urination (%) After adm.” value amounted to 74.5 ± 5.1% in the experiment with guinea pigs [3] (0.3 mg/kg i.v.), 84.9 ± 4.8% with guinea pigs [3] (1.0 mg/kg i.v.) and 89.0 ± 2.7% with guinea pigs [3] (3.0 mg/kg i.v.). Also, the “Improvement of Efficiency (%)” value in the experiment on guinea pigs [3] (0.3 mg/kg i.v.) is 22.0** %; with guinea pigs [3] (1.0 mg/kg i.v.), 55.4* %; in the experiment with guinea pigs [3] (3.0 mg/kg i.v.), 64.2* %.
Take `CCOc1ccccc1OCCN[C@H](C)Cc1ccc(OC)c(S(N)(=O)=O)c1` [Tamsulosin]: in the experiment on guinea pigs [1] (tamsulosin 0.1 mg/kg i.v. group, before administration (Table 9)), the “Flow Rate (mL/sec) Ante-admn.” value is 0.16 ± 0.01 mL/s. Besides, in the experiment with guinea pigs [1] (tamsulosin 0.1 mg/kg i.v., 10 minutes after administration (Table 9)), the “Flow Rate (mL/sec) Post-admn.” value was found to be 0.14 ± 0.02 mL/s. Further, the “Improvement (%)” value in the experiment on guinea pigs [1] (tamsulosin 0.1 mg/kg i.v., control distilled water (Table 9)) was −11.8 ± 4.8%.
Turning to `O=C(CCC1CCN(Cc2cccc([N+](=O)[O-])c2)CC1)c1cc2c3c(c1)CCN3C(=O)CC2` [compound 12], the IC50 in experiment [2] was determined as 8.1 nM. For the same molecule, the ED (2-fold bladder contraction AUC) in the experiment with urinary bladder (setting [4]) is 0.006 mg/kg.
On the same counts, the results for `O=C(CCC1CCN(Cc2cccc(Cl)c2)CC1)c1cc2c3c(c1)CCN3C(=O)CC2` [compound 4] are 10.9 nM and 0.005 mg/kg.
The molecule `O=C(CCC1CCN(Cc2ccccc2)CC1)c1cc2c3c(c1)CCN3C(=O)CC2` [Reference Example 17, 8-[3-[1-(phenylmethyl)-4-piperidinyl]-1-oxopropyl]-1,2,5,6-tetrahydro-4H-pyrrolo[3,2,1-ij]quinolin-4-one] registered a half-maximal inhibitory concentration (IC50) in experiment [2] of 7.8 nM. In addition, the ED (2-fold bladder contraction AUC) in the experiment with urinary bladder was determined as 0.0034 mg/kg.
In the case of `Cc1cccc(CN2CCC(CCC(=O)c3cc4c5c(c3)CCN5C(=O)CC4)CC2)c1` [compound 6], the IC50 in experiment [2] is 18.9 nM. In addition, the ED (2-fold bladder contraction AUC) in the experiment with urinary bladder (setting [4]) stood at 0.0049 mg/kg.

The values are drawn from patent US8252814B2, “Agents and crystals for improving excretory potency of urinary bladder” (priority 1998, dated 2012).
